Data as given in ChEMBL document CHEMBL3297734, “Cationic lipid-conjugated dexamethasone as a selective antitumor agent” (Eur J Med Chem, 2014).
Calls of active or inactive are those of the source. The rule behind the calls is not given here.

How the values were obtained:
[1] = Cytotoxicity against mouse fibroblasts after 72 hrs by MTT assay; assay type: cell-based; conditions: Fibroblast
HEK-293T [2] = test: Cytotoxicity against HEK293T cells after 72 hrs by MTT assay; assay type: cell-based; conditions: Homo sapiens
A549 = test: Anticancer against human A549 cells after 72 hrs by MTT assay; assay type: functional, cell-based; conditions: A549, 72 h
MCF7 [3] = test: Anticancer against human MCF7 cells after 72 hrs by MTT assay; assay type: functional, cell-based; conditions: MCF7, 72 h
[4] = Anticancer against mouse B16F10 cells after 72 hrs by MTT assay; assay type: functional, cell-based; conditions: B16-F10, 72 h
CHO [5] = test: Cytotoxicity against CHO cells after 72 hrs by MTT assay; assay type: cell-based; conditions: Cricetulus griseus
CHO [6] = test: Induction of apoptosis in CHO cells assessed as late apoptotic cells at 10 uM after 48 hrs using FITC-annexin V-FITC/propidium iodide by flow cytometry (reference value: 0%); assay type: cell-based, Cricetulus griseus; conditions: chinese hamster
B16-F10 [7] = test: Induction of apoptosis in mouse B16F10 cells assessed as increase in ratio of BAX/Bcl2 expression at 10 uM after 48 hrs by Western blot analysis relative to untreated control; assay type: functional, cell-based
B16-F10 [8] = test: Antitumor activity against mouse B16F10 cells xenografted in C57BL/6 mouse assessed as apoptotic regions at 20 mg/kg, ip measured after 24 days of tumor inoculation by TUNEL assay; assay type: functional, organism-based; parameters: dose 20 mg/kg
[9] = Induction of apoptosis in CHO cells assessed as viable cells at 10 uM after 48 hrs using FITC-annexin V-FITC/propidium iodide by flow cytometry (reference value: 93.3%); assay type: cell-based, Cricetulus griseus; conditions: chinese hamster, read-out: Activity
B16-F10 [10] = test: Antitumor activity against mouse B16F10 cells xenografted in C57BL/6 mouse assessed as inhibition tumor growth at 20 mg/kg, ip measured after 24 days of tumor inoculation; assay type: functional, organism-based; parameters: dose 20 mg/kg
CHO [11] = test: Induction of apoptosis in CHO cells assessed as early apoptotic cells at 10 uM after 48 hrs using FITC-annexin V-FITC/propidium iodide by flow cytometry (reference value: 0.1%); assay type: cell-based, Cricetulus griseus; conditions: chinese hamster
B16-F10 [12] = test: Induction of apoptosis in mouse B16F10 cells assessed as early apoptotic cells at 10 uM after 48 hrs using FITC-annexin V-FITC/propidium iodide by flow cytometry (reference value: 0.7%); assay type: functional
B16-F10 [13] = test: Induction of apoptosis in mouse B16F10 cells assessed as viable cells at 10 uM after 48 hrs using FITC-annexin V-FITC/propidium iodide by flow cytometry (reference value: 95.1%); assay type: functional; conditions: B16-F10, 48 h, read-out: Activity
HEK-293T [14] = test: Induction of apoptosis in HEK293T cells assessed as late apoptotic cells at 10 uM after 48 hrs using FITC-annexin V-FITC/propidium iodide by flow cytometry (reference value: 0.4%); assay type: cell-based; conditions: human
HEK-293T [15] = test: Induction of apoptosis in HEK293T cells assessed as early apoptotic cells at 10 uM after 48 hrs using FITC-annexin V-FITC/propidium iodide by flow cytometry (reference value: 0.3%); assay type: cell-based; conditions: human
B16-F10 [16] = test: Induction of apoptosis in mouse B16F10 cells assessed as late apoptotic cells at 10 uM after 48 hrs using FITC-annexin V-FITC/propidium iodide by flow cytometry (reference value: 2.5%); assay type: functional
HEK-293T [17] = test: Induction of apoptosis in HEK293T cells assessed as necrotic cells at 10 uM after 48 hrs using FITC-annexin V-FITC/propidium iodide by flow cytometry (reference value: 0.7%); assay type: cell-based; conditions: human
MCF7 [18] = test: Induction of apoptosis in human MCF7 cells assessed as necrotic cells at 10 uM after 48 hrs using FITC-annexin V-FITC/propidium iodide by flow cytometry (reference value: 7.1%); assay type: functional
MCF7 [19] = test: Induction of apoptosis in human MCF7 cells assessed as early apoptotic cells at 10 uM after 48 hrs using FITC-annexin V-FITC/propidium iodide by flow cytometry (reference value: 3%); assay type: functional
MCF7 [20] = test: Induction of apoptosis in human MCF7 cells assessed as late apoptotic cells at 10 uM after 48 hrs using FITC-annexin V-FITC/propidium iodide by flow cytometry (reference value: 3.5%); assay type: functional
[21] = Induction of apoptosis in HEK293T cells assessed as viable cells at 10 uM after 48 hrs using FITC-annexin V-FITC/propidium iodide by flow cytometry (reference value: 98.6%); assay type: cell-based, HEK-293T; conditions: human, read-out: Activity
B16-F10 [22] = test: Induction of apoptosis in mouse B16F10 cells assessed as necrotic cells at 10 uM after 48 hrs using FITC-annexin V-FITC/propidium iodide by flow cytometry (reference value: 1.7%); assay type: functional
MCF7 [23] = test: Induction of apoptosis in human MCF7 cells assessed as viable cells at 10 uM after 48 hrs using FITC-annexin V-FITC/propidium iodide by flow cytometry (reference value: 86.4%); assay type: functional; conditions: MCF7, 48 h, read-out: Activity
CHO [24] = test: Induction of apoptosis in CHO cells assessed as necrotic cells at 10 uM after 48 hrs using FITC-annexin V-FITC/propidium iodide by flow cytometry (Rvb =6.6%); assay type: cell-based, Cricetulus griseus; conditions: chinese hamster
B16-F10 [25] = test: Antitumor activity against mouse B16F10 cells xenografted in C57BL/6 mouse assessed as apoptotic regions at 20 mg/kg, ip measured after 24 days of tumor inoculation by VE-cadherin; assay type: functional, organism-based; parameters: dose 20 mg/kg
B16-F10 [26] = test: Induction of apoptosis in mouse B16F10 cells assessed as down-regulation of JAK3/STAT3 at 10 uM after 48 hrs by Western blot analysis; assay type: functional, cell-based
B16-F10 [27] = test: Induction of apoptosis in mouse B16F10 cells assessed as up-regulation of Smac/Diablo at 10 uM after 48 hrs by Western blot analysis; assay type: functional, cell-based
B16-F10 [28] = test: Induction of apoptosis in mouse B16F10 cells assessed as caspase 9 activation at 10 uM after 48 hrs by Western blot analysis; assay type: functional, cell-based
B16-F10 [29] = test: Cytotoxicity against mouse B16F10 cells transfected with GR-siRNA assessed as cell viability after 48 hrs by flow cytometry; assay type: functional, cell-based
MCF7 [30] = test: Cytotoxicity against human MCF7 cells transfected with GR-siRNA assessed as cell viability after 48 hrs by flow cytometry; assay type: functional, cell-based
B16-F10 [31] = test: Antitumor activity against mouse B16F10 cells xenografted in C57BL/6 mouse assessed as up-regulation of P53 in tumor at 20 mg/kg, ip measured after 24 days of tumor inoculation by Western blot analysis; assay type: functional, organism-based; parameters: dose 20 mg/kg
B16-F10 [32] = test: Cytotoxicity against mouse B16F10 cells assessed as cell viability after 48 hrs by flow cytometry in presence of RU-486 GR antagonist; assay type: functional, cell-based
B16-F10 [33] = test: Induction of apoptosis in mouse B16F10 cells assessed as p53 up-regulation at 10 uM after 48 hrs by flow cytometry; assay type: functional, cell-based
B16-F10 [34] = test: Induction of apoptosis in mouse B16F10 cells assessed as caspase 3 activation at 10 uM after 48 hrs by Western blot analysis; assay type: functional, cell-based
B16-F10 [35] = test: Induction of apoptosis in mouse B16F10 cells assessed as up-regulation of caspase 7 at 10 uM after 48 hrs by Western blot analysis; assay type: functional, cell-based
B16-F10 [36] = test: Antitumor activity against mouse B16F10 cells xenografted in C57BL/6 mouse assessed as reduction in angiogenesis in tumor measured as VEGRF2 expression at 20 mg/kg, ip measured after 24 days of tumor inoculation by microscopy relative to untreated control; assay type: functional, organism-based; parameters: dose 20 mg/kg
B16-F10 [37] = test: Antitumor activity against mouse B16F10 cells xenografted in C57BL/6 mouse assessed as down-regulation of p-Mdm2 in tumor at 20 mg/kg, ip measured after 24 days of tumor inoculation by Western blot analysis; assay type: functional, organism-based; parameters: dose 20 mg/kg
B16-F10 [38] = test: Induction of apoptosis in mouse B16F10 cells assessed as Akt destruction at 10 uM after 48 hrs by Western blot analysis; assay type: functional, cell-based
B16-F10 [39] = test: Induction of apoptosis in mouse B16F10 cells assessed as down-regulation of XIAP at 10 uM after 48 hrs by Western blot analysis; assay type: functional, cell-based

CCCC[N+](C)(CCCC)CCNC(=O)[C@@]1(O)[C@H](C)C[C@H]2[C@@H]3CCC4=CC(=O)C=C[C@]4(C)[C@@]3(F)[C@@H](O)C[C@@]21C
IC50 [1]: > 20 µM
IC50 (HEK-293T [2]): > 15 µM
IC50 (A549): > 15 µM
IC50 (MCF7 [3]): > 15 µM
IC50 [4]: > 20 µM
IC50 (CHO [5]): > 20 µM

C[C@@H]1C[C@H]2[C@@H]3CCC4=CC(=O)C=C[C@]4(C)[C@@]3(F)[C@@H](O)C[C@]2(C)[C@@]1(O)C(=O)CO [DEXAMETHASONE]
Activity (CHO [6]): 0%
IC50 [1]: > 15 µM
IC50 (HEK-293T [2]): > 20 µM
Activity (B16-F10 [7]): Active
IC50 (A549): > 15 µM
Activity (B16-F10 [8]): Active
viability at 48 h, 10 µM [9]: 95.8%
inhibition (B16-F10 [10]): Active
Activity (CHO [11]): 0%
Activity (B16-F10 [12]): 0.8%
viability at 10 µM (B16-F10 [13]): 94.1%
IC50 (MCF7 [3]): > 15 µM
Activity (HEK-293T [14]): 0.1%
Activity (HEK-293T [15]): 0.1%
IC50 [4]: > 20 µM
Activity (B16-F10 [16]): 3.7%
Activity (HEK-293T [17]): 0.4%
Activity (MCF7 [18]): 9.5%
Activity (MCF7 [19]): 2.4%
Activity (MCF7 [20]): 5.9%
viability at 48 h, 10 µM [21]: 94.4%
Activity (B16-F10 [22]): 1.3%
viability at 10 µM (MCF7 [23]): 82.8%
IC50 (CHO [5]): > 20 µM
Activity (CHO [24]): 4.2%
Activity (B16-F10 [25]): Active

CCCCCCCCCCCC[N+](C)(CCCCCCCCCCCC)CCNC(=O)[C@@]1(O)[C@H](C)C[C@H]2[C@@H]3CCC4=CC(=O)C=C[C@]4(C)[C@@]3(F)[C@@H](O)C[C@@]21C
IC50 [1]: > 15 µM
IC50 (HEK-293T [2]): > 15 µM
IC50 (A549): 14 µM
IC50 (MCF7 [3]): 13.5 µM
IC50 [4]: > 15 µM
IC50 (CHO [5]): > 20 µM

CCCCCCCCCCCCCCCC[N+](C)(CCCCCCCCCCCCCCCC)CCNC(=O)[C@@]1(O)[C@H](C)C[C@H]2[C@@H]3CCC4=CC(=O)C=C[C@]4(C)[C@@]3(F)[C@@H](O)C[C@@]21C
IC50 [1]: > 15 µM
IC50 (HEK-293T [2]): > 20 µM
IC50 (A549): 14.8 µM
IC50 (MCF7 [3]): > 15 µM
IC50 [4]: > 15 µM
IC50 (CHO [5]): > 15 µM

CCCCCCCC[N+](C)(CCCCCCCC)CCNC(=O)[C@@]1(O)[C@H](C)C[C@H]2[C@@H]3CCC4=CC(=O)C=C[C@]4(C)[C@@]3(F)[C@@H](O)C[C@@]21C.[Cl-]
Activity (CHO [6]): 0%
IC50 [1]: > 15 µM
Activity (B16-F10 [26]): Active
IC50 (HEK-293T [2]): > 15 µM
Activity (B16-F10 [7]): Active
IC50 (A549): 7.2 µM
Activity (B16-F10 [8]): Active
Activity (B16-F10 [27]): Active
viability at 48 h, 10 µM [9]: 94.1%
Activity (B16-F10 [28]): Active
inhibition (B16-F10 [10]): Active
Activity (CHO [11]): 0%
Activity (B16-F10 [12]): 27%
viability at 10 µM (B16-F10 [13]): 58%
IC50 (MCF7 [3]): 6.5 µM
Activity (B16-F10 [29]): inactive
Activity (MCF7 [30]): inactive
Activity (B16-F10 [31]): Active
Activity (HEK-293T [14]): 0.1%
Activity (B16-F10 [32]): inactive
Activity (B16-F10 [33]): Active
Activity (B16-F10 [34]): Active
Activity (B16-F10 [35]): Active
Activity (HEK-293T [15]): 0.1%
IC50 [4]: 6 µM
inhibition (B16-F10 [36]): Active
Activity (B16-F10 [16]): 12.5%
Activity (HEK-293T [17]): 0.5%
Activity (MCF7 [18]): 13.1%
Activity (MCF7 [19]): 18.6%
Activity (B16-F10 [37]): Active
Activity (MCF7 [20]): 7.8%
viability at 48 h, 10 µM [21]: 99.3%
Activity (B16-F10 [22]): 2.5%
viability at 10 µM (MCF7 [23]): 61.5%
IC50 (CHO [5]): > 15 µM
Activity (B16-F10 [38]): Active
Activity (CHO [24]): 5.9%
Activity (B16-F10 [25]): inactive
Activity (B16-F10 [39]): Active

CC[N+](C)(CC)CCNC(=O)[C@@]1(O)[C@H](C)C[C@H]2[C@@H]3CCC4=CC(=O)C=C[C@]4(C)[C@@]3(F)[C@@H](O)C[C@@]21C
IC50 [1]: > 20 µM
IC50 (HEK-293T [2]): > 20 µM
IC50 (A549): > 15 µM
IC50 (MCF7 [3]): > 15 µM
IC50 [4]: > 20 µM
IC50 (CHO [5]): > 15 µM
